Tested on: AsPC-1 cells
Test: AsPC-1 TGI-70 xenograft tumor volume study
Assay type: in vivo, nude/nude mice
Details: for Average Tumor Volumes: MRTX0902 50 mg/kg BID daily, alone or combined, 5 mice per group
Source text: Experimental Procedures. 20 nude/nude mice were inoculated with AsPC-1 cells in the right hind flank. When the tumors reached ˜200 mm^3 four treatment groups were established with five mice per group.

Row | SMILES | tumor growth inhibition (Day 13, MRTX0902 50 mg/kg BID daily as a single agent) [%] | Average Tumor Volumes (Study Day 1, MRTX1133 30 mg/kg BID daily) [mm^3] | Average Tumor Volumes (Study Day 6, MRTX1133 30 mg/kg BID daily) [mm^3] | Average Tumor Volumes (Study Day 9, MRTX1133 30 mg/kg BID daily) [mm^3] | Average Tumor Volumes (Study Day 13, MRTX1133 30 mg/kg BID daily) [mm^3] | Average Tumor Volumes (Study Day 16, MRTX1133 30 mg/kg BID daily) [mm^3] | Average Tumor Volumes (Study Day 20, MRTX1133 30 mg/kg BID daily) [mm^3] | Average Tumor Volumes (Study Day 23, MRTX1133 30 mg/kg BID daily) [mm^3] | tumor regression (Day 13, MRTX1133 30 mg/kg BID daily, alone or with MRTX0902 twice daily) [%]
1 | Cc1c(C#N)cccc1[C@@H](C)Nc1nnc(C)c2cnc(N3CCOCC3)cc12 [MRTX0902] | 26 | 194.8 | 215.066 | 220.892 | 262.374 | 316.164 | 387.59 | 480.782 | 
2 | C#Cc1c(F)ccc2cc(O)cc(-c3ncc4c(N5C[C@H]6CC[C@@H](C5)N6)nc(OC[C@@]56CCCN5C[C@H](F)C6)nc4c3F)c12 [MRTX1133, 4-(4-((1R,5S)-3,8-diazabicyclo[3.2.1]octan-3-yl)-8-fluoro-2-(((2R,7aS)-2-fluorohexahydro-1H-pyrrolizin-7a-yl)methoxy)pyrido[4,3-d]pyrimidin-7-yl)-5-ethynyl-6-fluoronaphthalen-2-ol] |  |  |  |  |  |  |  |  | 26
